Assay results as given in patent US8637511B2, “Aminopyrimidines useful as kinase inhibitors” (Vertex Pharmaceuticals Incorporated, priority 2005, dated 2014).
“And” between values parts separate entries of the source, which are not always exact repeats. Equal values may be shown once. Read-outs that look alike come from different tables or passages of the source.

How the values were obtained:
[1] = molecular target: T1, Aurora-2 (Aurora A) (Homo sapiens, UniProt O14965); test: Aurora-2 (Aurora A) inhibition assay, coupled enzyme; format: biochemical; details: read-out: Aurora A kinase Ki value
T1 sequence (O14965 1-403): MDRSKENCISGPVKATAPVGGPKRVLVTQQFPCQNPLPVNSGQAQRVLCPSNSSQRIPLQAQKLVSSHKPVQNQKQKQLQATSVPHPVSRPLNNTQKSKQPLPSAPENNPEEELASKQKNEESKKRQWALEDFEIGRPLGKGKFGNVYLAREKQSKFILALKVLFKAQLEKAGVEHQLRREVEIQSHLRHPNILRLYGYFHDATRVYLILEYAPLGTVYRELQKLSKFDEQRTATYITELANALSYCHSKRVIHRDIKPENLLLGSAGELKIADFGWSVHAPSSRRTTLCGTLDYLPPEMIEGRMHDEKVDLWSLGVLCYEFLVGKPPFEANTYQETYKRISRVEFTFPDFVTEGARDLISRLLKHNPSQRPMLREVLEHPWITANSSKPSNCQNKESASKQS
How it was run: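 These rates came from NADH consumption coupled through pyruvate kinase and lactate dehydrogenase (100 mM Hepes pH 7.5, 10 mM MgCl2, 300 μM NADH). Aurora-2 was present at 40 nM, and the reaction ran at 30 °C after a 10 min preincubation.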

[2] = tested on: Colo205 cells; test: Analysis of cell proliferation and viability; format: cell-based; details: Homo sapiens, COLO 205, Colo205 cells, read-out: IC50 value
[3] = molecular target: Aurora-1 (Aurora B) (Homo sapiens, UniProt Q96GD4); test: Aurora-1 (Aurora B) inhibition assay (radiometric); format: biochemical; details: read-out: Aurora B kinase Ki value
How it was run: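 Ki values come from non-linear regression of background-corrected initial-rate data. The enzyme was preincubated 10 min at 25° C with compound, then reacted 3 h with 800 μM (final) [γ-^33P]-ATP in HEPES pH 7.5/MgCl2/BSA/glycerol buffer. The reaction was stopped with phosphoric acid and substrate-bound ^33P counted on phosphocellulose.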

Aurora-1 (Aurora B), sequence (Q96GD4 whole entry): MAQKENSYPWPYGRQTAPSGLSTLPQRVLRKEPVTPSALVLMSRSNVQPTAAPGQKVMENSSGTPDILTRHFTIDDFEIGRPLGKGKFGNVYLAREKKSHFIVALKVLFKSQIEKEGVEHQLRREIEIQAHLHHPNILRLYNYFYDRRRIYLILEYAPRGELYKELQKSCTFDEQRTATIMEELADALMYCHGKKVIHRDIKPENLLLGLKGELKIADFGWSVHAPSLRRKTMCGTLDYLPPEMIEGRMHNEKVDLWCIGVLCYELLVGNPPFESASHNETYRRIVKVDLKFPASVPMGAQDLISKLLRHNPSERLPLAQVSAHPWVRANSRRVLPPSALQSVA

`CCOC1CN(c2cc(Nc3cc(C)[nH]n3)nc(Sc3ccc(NC(=O)c4ccccc4Cl)cc3)n2)C1` [Compound 37] gave a Ki [1] of no more than 1 nM, an IC50 ([2]; incubated for 96 hours) of 50 to 1000 nM and a Ki [3] of no more than 10 nM.
`Cc1cc(Nc2cc(N3CC(OC(C)C)C3)nc(Sc3ccc(NC(=O)c4ccccc4Cl)cc3)n2)n[nH]1` [Compound 38] was tested, and the Ki [1] was no more than 1 nM, the IC50 ([2]; incubated for 96 hours) was no more than 50 nM and the Ki [3] was no more than 10 nM.
`Cc1cc(Nc2cc(N3CC(C)(O)C3)nc(Sc3ccc(NC(=O)c4ccccc4Cl)cc3)n2)[nH]n1` [Compound 50] was tested, and the Ki [1] was no more than 1 nM, the IC50 ([2]; incubated for 72 hours) was no more than 30 nM and the IC50 ([2]; incubated for 96 hours) was no more than 50 nM. The Ki [3] was no more than 10 nM.
`COC1(C)CN(c2cc(Nc3cc(C)n[nH]3)nc(Sc3ccc(NC(=O)c4ccccc4Cl)cc3)n2)C1` [Compound 51] showed a Ki [1] of no more than 1 nM, an IC50 ([2]; incubated for 72 hours) of no more than 30 nM and an IC50 ([2]; incubated for 96 hours) of no more than 50 nM. For the same compound, the Ki [3] was no more than 10 nM.
In the case of `Cc1cc(Nc2cc(N3CCC3)nc(Sc3ccc(NC(=O)Cc4ccccc4Cl)cc3)n2)[nH]n1` [Compound 57], the Ki [1] is reported as no more than 1 nM, the IC50 ([2]; incubated for 96 hours) is reported as 50 to 1000 nM and the Ki [3] is reported as no more than 10 nM.
`Cc1cc(Nc2cc(N3CCC3)nc(Sc3ccc(NC(=O)c4cnccc4C(F)(F)F)cc3)n2)[nH]n1` [Compound 59] was tested, and the IC50 ([2]; incubated for 72 hours) was greater than 200 nM, the IC50 ([2]; incubated for 96 hours) was 50 to 1000 nM and the Ki [3] was no more than 10 nM.
`CCC(=O)Nc1ccc(Sc2nc(Nc3cc(C)n[nH]3)cc(N3CC(OC(C)(C)C)C3)n2)cc1` [Compound 67] showed a Ki [1] of no more than 1 nM, an IC50 ([2]; incubated for 96 hours) of 50 to 1000 nM and a Ki [3] of 50 to 2000 nM.
With `CCC(=O)Nc1ccc(Sc2nc(Nc3cc(C)n[nH]3)cc(N3CC(N4CCOCC4)C3)n2)cc1` [Compound 68] the Ki [1] was no more than 1 nM, the IC50 ([2]; incubated for 96 hours) was 50 to 1000 nM and the Ki [3] was 50 to 2000 nM.
In the case of `CC(C)(C)c1cc(Nc2cc(N3CCC3)nc(Sc3ccc(NC(=O)c4ccccc4Cl)cc3)n2)n[nH]1` [Compound 69], the Ki [3] is reported as 50 to 2000 nM.
`COCc1cc(Nc2cc(N3CCC3)nc(Sc3ccc(NC(=O)c4ccccc4Cl)cc3)n2)n[nH]1` [Compound 82] gave a Ki [3] of 50 to 2000 nM.
Compound `Cc1cc(Nc2cc(N3CCC3)nc(Sc3ccc(NC(=O)c4ccc(-c5ccccc5)cc4Cl)cc3)n2)[nH]n1` [Compound 83] has a Ki [1] of no more than 1 nM, an IC50 ([2]; incubated for 72 hours) of 30 to 200 nM and a Ki [3] of no more than 10 nM.
Compound `CCC(=O)Nc1ccc(Sc2nc(Nc3cc(C)n[nH]3)cc(N3CC(C)(N4CCOCC4)C3)n2)cc1` [Compound 88] has a Ki [1] of no more than 1 nM, an IC50 ([2]; incubated for 96 hours) of no more than 50 nM and a Ki [3] of no more than 10 nM.
`CCC(=O)Nc1ccc(Sc2nc(Nc3cc(C)n[nH]3)cc(N3CC(C)(N4CCCC4)C3)n2)cc1` [Compound 89] gave a Ki [1] of no more than 1 nM, an IC50 ([2]; incubated for 72 hours) of no more than 30 nM and an IC50 ([2]; incubated for 96 hours) of no more than 50 nM. The Ki [3] was no more than 10 nM.
For `CCC(=O)Nc1ccc(Sc2nc(Nc3cc(C)n[nH]3)cc(N3CC(OC)(C(C)(C)C)C3)n2)cc1` [Compound 90], the Ki [1] was no more than 1 nM, the IC50 ([2]; incubated for 96 hours) was no more than 50 nM and the Ki [3] was no more than 10 nM.
`CCC(=O)Nc1ccc(Sc2nc(Nc3cc(C)n[nH]3)cc(N3CC4(C3)OCC4(C)C)n2)cc1` [Compound 92] gave a Ki [1] of no more than 1 nM, an IC50 ([2]; incubated for 96 hours) of no more than 50 nM and a Ki [3] of 10 to 50 nM.
With `Cc1cc(Nc2cc(N3CC(O)(C4CC4)C3)nc(Sc3ccc(NC(=O)C4CC4)c(F)c3)n2)[nH]n1` [Compound 109] the Ki [1] was no more than 1 nM, the IC50 ([2]; incubated for 96 hours) was 50 to 1000 nM and the Ki [3] was 10 to 50 nM.
`Cc1cc(Nc2cc(N3CC(OC(=O)CN(C)C)(C4CC4)C3)nc(Sc3ccc(NC(=O)C4CC4)cc3)n2)n[nH]1` [Compound 119] showed a Ki [1] of no more than 1 nM, an IC50 ([2]; incubated for 72 hours) of 30 to 200 nM and a Ki [3] of no more than 10 nM.
With `Cc1cc(Nc2cc(N3CC(F)(C4CC4)C3)nc(Oc3ccc(NC(=O)CC(F)(F)F)cc3)n2)[nH]n1` [Compound 144] the Ki [1] was no more than 1 nM, the IC50 ([2]; incubated for 72 hours) was no more than 30 nM and the Ki [3] was 10 to 50 nM and < 25 nM.
`Cc1cc(Nc2cc(N3CC(F)(C4CC4)C3)nc(Sc3ccc(NS(C)(=O)=O)cc3)n2)[nH]n1` [Compound 151] was tested, and the Ki [1] was no more than 1 nM, the IC50 ([2]; incubated for 72 hours) was 30 to 200 nM and the Ki [3] was 50 to 2000 nM.
`Cc1cc(Nc2cc(N3CC(F)(C4CC4)C3)nc(Sc3ccc(NC(=O)CN(C)C)cc3)n2)[nH]n1` [Compound 152] gave a Ki [1] of no more than 1 nM, an IC50 ([2]; incubated for 72 hours) of 30 to 200 nM and a Ki [3] of no more than 10 nM.
Compound `Cc1cc(Nc2cc(N3CC(O)(C4CC4)C3)nc(Sc3ccc4nc(C(F)(F)F)n(C)c4c3)n2)[nH]n1` [Compound 155] has a Ki [1] of no more than 1 nM, an IC50 ([2]; incubated for 96 hours) of no more than 50 nM and a Ki [3] of no more than 10 nM.
In the case of `Cc1cc(Nc2cc(N3CC(C)(F)C3)nc(Sc3ccc(NC(=O)CC(F)(F)F)cc3)n2)n[nH]1` [Compound 168, N-(4-(4-(5-methyl-1H-pyrazol-3-ylamino)-6-(3-fluoro-3-methylazetidin-1-yl)pyrimidin-2-ylthio)phenyl)-3,3,3-trifluoropropanamide], the Ki [1] is reported as no more than 1 nM, the IC50 ([2]; incubated for 72 hours) is reported as 30 to 200 nM and the Ki [3] is reported as no more than 10 nM.
Work on `Cc1cc(Nc2cc(N3CC(C)(C#N)C3)nc(Sc3ccc(NC(=O)CC(F)(F)F)cc3)n2)[nH]n1` [Compound 169] yielded a Ki [1] of no more than 1 nM, an IC50 ([2]; incubated for 72 hours) of 30 to 200 nM and a Ki [3] of no more than 10 nM.
Compound `Cc1cc(Nc2cc(N3CC(O)(C4CC4)C3)nc(Sc3cc(F)c4nc(C)ccc4c3)n2)[nH]n1` [Compound 172] has a Ki [1] of no more than 1 nM, an IC50 ([2]; incubated for 72 hours) of no more than 30 nM and a Ki [3] of no more than 10 nM.
In the case of `Cc1cc(Nc2cc(N3CC(N4CCOCC4)C3)nc(Sc3ccc4c(c3)CN(CC(F)(F)F)C4=O)n2)[nH]n1` [Compound 173], the Ki [1] is reported as no more than 1 nM, the IC50 ([2]; incubated for 72 hours) is reported as 30 to 200 nM and the Ki [3] is reported as 10 to 50 nM and < 25 nM.
`Cc1cc(Nc2cc(N3CC(N4CCOCC4)C3)nc(Sc3ccc4nc(CC(F)(F)F)n(C)c4c3)n2)[nH]n1` [Compound 177] showed a Ki [1] of no more than 1 nM, an IC50 ([2]; incubated for 72 hours) of 30 to 200 nM and a Ki [3] of no more than 10 nM.
In the case of `Cc1cc(Nc2nc(Sc3ccc(NC(=O)CC(F)(F)F)cc3)nc(N3CC(F)(C4CC4)C3)c2F)[nH]n1` [Compound 178], the Ki [1] is reported as no more than 1 nM, the IC50 ([2]; incubated for 72 hours) is reported as 30 to 200 nM and the Ki [3] is reported as 10 to 50 nM.
`Cc1cnc(Nc2cc(N3CC(F)(C4CC4)C3)nc(Oc3ccc(NC(=O)CC(F)(F)F)cc3)n2)s1` [Compound 181] showed a Ki [1] of no more than 1 nM, an IC50 ([2]; incubated for 72 hours) of 30 to 200 nM and a Ki [3] of 10 to 50 nM.
`Cc1cc(Nc2cc(N3CC(C)(C(C)(C)F)C3)nc(Sc3ccc(NC(=O)CC(F)(F)F)cc3)n2)[nH]n1` [Compound 183] gave a Ki [1] of no more than 1 nM, an IC50 ([2]; incubated for 72 hours) of no more than 30 nM and a Ki [3] of no more than 10 nM.
For `CC(C)=C1CN(c2cc(Nc3cc(C)n[nH]3)nc(Sc3ccc(NC(=O)CC(F)(F)F)cc3)n2)C1` [Compound 184], the Ki [1] was no more than 1 nM, the IC50 ([2]; incubated for 72 hours) was 30 to 200 nM and the Ki [3] was 10 to 50 nM and < 25 nM.
For `Cc1cc(Nc2cc(N3CC(N4CC[C@H](F)C4)C3)nc(Sc3ccc(NC(=O)CC(F)(F)F)cc3)n2)[nH]n1` [Compound 185], the Ki [1] was no more than 1 nM, the IC50 ([2]; incubated for 72 hours) was no more than 30 nM and the Ki [3] was no more than 10 nM.
`Cc1cc(Nc2cc(N3CC(O)(C4CC4)C3)nc(Sc3ccc4nc(C(F)(F)F)ccc4c3)n2)[nH]n1` [Compound 186] showed a Ki [1] of no more than 1 nM, an IC50 ([2]; incubated for 72 hours) of 30 to 200 nM and a Ki [3] of no more than 10 nM.
For `Cc1cc(Nc2cc(N3CC(F)(C4CC4)C3)nc(Sc3ccc(NC(=O)C4(C)CC4)cc3)n2)[nH]n1` [Compound 203], the Ki [1] was no more than 1 nM, the IC50 ([2]; incubated for 72 hours) was 30 to 200 nM and the Ki [3] was 50 to 2000 nM.
For `Cc1cc(Nc2cc(N3CC(N4CCCC4)C3)nc(Sc3ccc(NC(=O)CC(F)(F)F)cc3)n2)[nH]n1` [Compound 204], the Ki [1] was no more than 1 nM, the IC50 ([2]; incubated for 72 hours) was no more than 30 nM and the Ki [3] was no more than 10 nM.
For `Cc1cc(Nc2cc(N3CC(F)(C4CC4)C3)nc(Sc3ccc(C(=O)NCC(F)(F)F)cc3)n2)[nH]n1` [Compound 205], the Ki [1] was no more than 1 nM, the IC50 ([2]; incubated for 72 hours) was no more than 30 nM and the Ki [3] was 10 to 50 nM and < 25 nM.
`Cc1cc(Nc2cc(N3CC(F)(C4CC4)C3)nc(Sc3cnc4ccccc4c3)n2)[nH]n1` [Compound 206] was tested, and the Ki [1] was no more than 1 nM, the IC50 ([2]; incubated for 72 hours) was greater than 200 nM and the Ki [3] was 10 to 50 nM.
